Measured values published in PubChem BioAssay AID2060891 (Molecular Pharmacology Branch, DTP, NCI, 2025).

Test system: K98450-129-R-PDC complex spheroid growth, percent test/control
Test: Anticancer human tumor K98450-129-R-PDC patient-derived colon adenocarcinoma cell line growth inhibition [RAS]
Settings: for IC50: curve of first compound; for viability, T/C: stronger effect = lower value; active means viability on the fitted dose curve at most 10% of control; inactive means the rest
Summary of the method: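 Tumour cells grown as complex spheroids with HUVEC endothelial cells and mesenchymal stem cells, treated with RAS pathway inhibitor combinations. Each agent spans half-log steps from near clinical Cmax, or 10 microM where Cmax is unknown.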

[1] = second compound 0.000949 µM, first compound 0.00316 µM
[2] = second compound 0.000949 µM, first compound 0.01 µM
[3] = second compound 0.000949 µM, first compound 0.0316 µM
[4] = second compound 0.000949 µM, first compound 0.1 µM
[5] = second compound 0.003 µM, first compound 0.00316 µM
[6] = second compound 0.003 µM, first compound 0.01 µM
[7] = second compound 0.003 µM, first compound 0.0316 µM
[8] = second compound 0.003 µM, first compound 0.1 µM
[9] = second compound 0.00949 µM, first compound 0.00316 µM
[10] = second compound 0.00949 µM, first compound 0.01 µM
[11] = second compound 0.00949 µM, first compound 0.0316 µM
[12] = second compound 0.00949 µM, first compound 0.1 µM
[13] = second compound 0.03 µM, first compound 0.00316 µM
[14] = second compound 0.03 µM, first compound 0.01 µM
[15] = second compound 0.03 µM, first compound 0.0316 µM
[16] = second compound 0.03 µM, first compound 0.1 µM
[17] = second compound 0.0949 µM, first compound 0.00316 µM
[18] = second compound 0.0949 µM, first compound 0.01 µM
[19] = second compound 0.0949 µM, first compound 0.0316 µM
[20] = second compound 0.0949 µM, first compound 0.1 µM
[21] = second compound 0.3 µM, first compound 0.00316 µM
[22] = second compound 0.3 µM, first compound 0.01 µM
[23] = second compound 0.3 µM, first compound 0.0316 µM
[24] = second compound 0.3 µM, first compound 0.1 µM
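Further: spheroids exposed to agents for seven days before the viability readout.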
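Wherever viability, T/C is given: luminescence used as a proxy for viable cell amount.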

CC(C)n1nc(-c2ccc3oc(N)nc3c2)c2c(N)ncnc21 + CCn1c(-c2cccnc2C(C)OC)c2c3cc(ccc31)N1CCOC(CC(NC(=O)C(C(C)C)N(C)C(=O)C3(F)CCN(C(=O)C#CC(C)(C)N(C)C)CC3)C(=O)N3CCCC(N3)C(=O)OCC(C)(C)C2)C1
46.3 nM: IC50 (second compound 0.000949 µM)
0.449 nM: IC50 (second compound 0.00949 µM)
2.56 nM: IC50 (second compound 0.003 µM)
< 0.316 nM: IC50 (second compound 0.03 µM) | IC50 (second compound 0.0949 µM) | IC50 (second compound 0.3 µM)
inactive: viability, T/C (second compound 0.000949 µM, first compound 0.000316 µM) 58% | viability, T/C (second compound 0.000949 µM, first compound 0.001 µM) 66.9% | viability, T/C [1] 65.7% | viability, T/C [2] 63.2% | viability, T/C [3] 50.5% | viability, T/C [4] 41.8% | viability, T/C (second compound 0.003 µM, first compound 0.000316 µM) 58.5% | viability, T/C (second compound 0.003 µM, first compound 0.001 µM) 53.4% | viability, T/C [5] 53% | viability, T/C [6] 38.5% | viability, T/C [7] 40.6% | viability, T/C [8] 31.9% | viability, T/C (second compound 0.00949 µM, first compound 0.000316 µM) 52.1% | viability, T/C (second compound 0.00949 µM, first compound 0.001 µM) 46% | viability, T/C [9] 34.8% | viability, T/C [10] 33.3% | viability, T/C [11] 30.5% | viability, T/C [12] 28.9% | viability, T/C (second compound 0.03 µM, first compound 0.000316 µM) 35.2% | viability, T/C (second compound 0.03 µM, first compound 0.001 µM) 40% | viability, T/C [13] 36.5% | viability, T/C [14] 23.9% | viability, T/C [15] 29.1% | viability, T/C [16] 25.6% | viability, T/C (second compound 0.0949 µM, first compound 0.000316 µM) 34.3% | viability, T/C (second compound 0.0949 µM, first compound 0.001 µM) 32% | viability, T/C [17] 32.6% | viability, T/C [18] 28.6% | viability, T/C [19] 30.6% | viability, T/C [20] 22.7% | viability, T/C (second compound 0.3 µM, first compound 0.000316 µM) 29.4% | viability, T/C (second compound 0.3 µM, first compound 0.001 µM) 35% | viability, T/C [21] 30.1% | viability, T/C [22] 27.5% | viability, T/C [23] 25.9% | viability, T/C [24] 23.7%

O=C(c1ccc(F)c(F)c1Nc1ccc(I)cc1F)N1CC(O)([C@@H]2CCCCN2)C1 + CCn1c(-c2cc(N3CCN(C)CC3)cnc2C(C)OC)c2c3cc(ccc31)-c1csc(n1)CC(NC(=O)C1CC1C)C(=O)N1CCCC(N1)C(=O)OCC(C)(C)C2
118 nM: IC50 (second compound 0.000949 µM)
42.2 nM: IC50 (second compound 0.00949 µM)
3.23 nM: IC50 (second compound 0.03 µM)
active: viability, T/C (second compound 0.000949 µM, first compound 1 µM) 2.95% | viability, T/C (second compound 0.003 µM, first compound 1 µM) 2.62% | viability, T/C (second compound 0.00949 µM, first compound 0.316 µM) 3.99% | viability, T/C (second compound 0.00949 µM, first compound 1 µM) 2.44% | viability, T/C [16] 6.53% | viability, T/C (second compound 0.03 µM, first compound 0.316 µM) 2.64% | viability, T/C (second compound 0.03 µM, first compound 1 µM) 2.51% | viability, T/C [18] 10.1% | viability, T/C [19] 7.08% | viability, T/C [20] 2.95% | viability, T/C (second compound 0.0949 µM, first compound 0.316 µM) 2.96% | viability, T/C (second compound 0.0949 µM, first compound 1 µM) 2.57% | viability, T/C [21] 8.48% | viability, T/C [22] 8.02% | viability, T/C [23] 4.92% | viability, T/C [24] 2.97% | viability, T/C (second compound 0.3 µM, first compound 0.316 µM) 3.32% | viability, T/C (second compound 0.3 µM, first compound 1 µM) 2.59%
< 3.16 nM: IC50 (second compound 0.0949 µM) | IC50 (second compound 0.3 µM)
64.2 nM: IC50 (second compound 0.003 µM)
inactive: viability, T/C [1] 94.8% | viability, T/C [2] 92% | viability, T/C [3] 87.4% | viability, T/C [4] 57.3% | viability, T/C (second compound 0.000949 µM, first compound 0.316 µM) 10.2% | viability, T/C [5] 95.7% | viability, T/C [6] 87% | viability, T/C [7] 63.2% | viability, T/C [8] 45.8% | viability, T/C (second compound 0.003 µM, first compound 0.316 µM) 7.54% | viability, T/C [9] 67.8% | viability, T/C [10] 60.7% | viability, T/C [11] 56% | viability, T/C [12] 31.1% | viability, T/C [13] 51.7% | viability, T/C [14] 45% | viability, T/C [15] 31.1% | viability, T/C [17] 14.9%
